The numbers were not newly measured in patent publication US20090155200A1, “Methods of promoting cartilage healing or cartilage integration” (priority 2004, published 2009), which cites them from elsewhere.

The subject of the series is articular cartilage defect. The note with it: pre-treatment with trypsin; Chen et al. 2000.

For the substance trypsin, the “integration and remodeling of implanted cartilage” value is reported as “improved”.
